# Where two headings read alike, the source gives them in different places.
# Assays:
# JAK1 = biological target: T1, JAK1 (Homo sapiens, UniProt P23458); assay: Biochemical JAK1 kinase assay (LanthaScreen); conditions: for Ki: read-out: JAK 1 (pKi) (converted)
# T1 construct: GST; purchased Life Technologies
# Outline: (§1)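 Values are pKi, calculated by Cheng-Prusoff from IC50 obtained by robust 4-parameter fitting of percent inhibition. The kinase reaction used GFP-STAT1 peptide in HEPES pH 7.5 buffer with MgCl2, EGTA and Brij-35, ATP-initiated after compound pre-incubation, 1 h at ambient temperature.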
# JAK3 = biological target: T2, JAK3 (Homo sapiens, UniProt P52333); assay: Biochemical JAK3 kinase assay (LanthaScreen); design: GST; purchased Life Technologies; conditions: for Ki: read-out: JAK 3 (pKi) (converted)
# T2 sequence (P52333 1-1124): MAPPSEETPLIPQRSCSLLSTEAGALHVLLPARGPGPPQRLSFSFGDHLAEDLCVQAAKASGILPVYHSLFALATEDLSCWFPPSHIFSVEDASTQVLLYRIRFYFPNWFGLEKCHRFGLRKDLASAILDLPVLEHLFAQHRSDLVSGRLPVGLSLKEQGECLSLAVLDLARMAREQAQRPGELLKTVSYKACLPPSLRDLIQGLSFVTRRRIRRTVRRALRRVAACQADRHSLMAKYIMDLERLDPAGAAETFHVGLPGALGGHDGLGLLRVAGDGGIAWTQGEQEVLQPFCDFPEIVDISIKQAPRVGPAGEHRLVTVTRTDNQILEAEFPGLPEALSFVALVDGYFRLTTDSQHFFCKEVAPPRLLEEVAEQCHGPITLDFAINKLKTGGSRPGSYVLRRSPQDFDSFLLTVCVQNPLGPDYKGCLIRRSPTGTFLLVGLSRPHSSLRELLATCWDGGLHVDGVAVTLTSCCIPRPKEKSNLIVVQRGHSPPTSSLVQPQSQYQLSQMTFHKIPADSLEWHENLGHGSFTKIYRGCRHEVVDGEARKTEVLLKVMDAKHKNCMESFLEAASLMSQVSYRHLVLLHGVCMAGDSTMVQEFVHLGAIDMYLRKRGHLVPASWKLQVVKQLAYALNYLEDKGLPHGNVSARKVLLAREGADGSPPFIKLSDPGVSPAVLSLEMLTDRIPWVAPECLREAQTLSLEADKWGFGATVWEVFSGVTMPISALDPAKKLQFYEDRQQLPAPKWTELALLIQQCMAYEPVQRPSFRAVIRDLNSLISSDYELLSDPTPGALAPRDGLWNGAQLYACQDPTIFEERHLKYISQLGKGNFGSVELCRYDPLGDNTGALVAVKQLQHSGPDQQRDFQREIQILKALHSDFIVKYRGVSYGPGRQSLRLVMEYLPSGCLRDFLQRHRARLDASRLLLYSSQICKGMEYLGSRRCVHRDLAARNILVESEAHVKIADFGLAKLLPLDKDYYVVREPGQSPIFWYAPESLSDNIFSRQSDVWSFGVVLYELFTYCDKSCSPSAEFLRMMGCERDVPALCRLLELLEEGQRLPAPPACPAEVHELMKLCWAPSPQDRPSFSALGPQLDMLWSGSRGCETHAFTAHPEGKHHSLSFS
# Outline: as §1
# JAK2 = biological target: T3, JAK2 (Homo sapiens, UniProt O60674); assay: Biochemical JAK2 kinase assay (LanthaScreen); conditions: for Ki: read-out: JAK 2 (pKi) (converted)
# T3 construct: GST; purchased Life Technologies
# T3 sequence (O60674 whole entry): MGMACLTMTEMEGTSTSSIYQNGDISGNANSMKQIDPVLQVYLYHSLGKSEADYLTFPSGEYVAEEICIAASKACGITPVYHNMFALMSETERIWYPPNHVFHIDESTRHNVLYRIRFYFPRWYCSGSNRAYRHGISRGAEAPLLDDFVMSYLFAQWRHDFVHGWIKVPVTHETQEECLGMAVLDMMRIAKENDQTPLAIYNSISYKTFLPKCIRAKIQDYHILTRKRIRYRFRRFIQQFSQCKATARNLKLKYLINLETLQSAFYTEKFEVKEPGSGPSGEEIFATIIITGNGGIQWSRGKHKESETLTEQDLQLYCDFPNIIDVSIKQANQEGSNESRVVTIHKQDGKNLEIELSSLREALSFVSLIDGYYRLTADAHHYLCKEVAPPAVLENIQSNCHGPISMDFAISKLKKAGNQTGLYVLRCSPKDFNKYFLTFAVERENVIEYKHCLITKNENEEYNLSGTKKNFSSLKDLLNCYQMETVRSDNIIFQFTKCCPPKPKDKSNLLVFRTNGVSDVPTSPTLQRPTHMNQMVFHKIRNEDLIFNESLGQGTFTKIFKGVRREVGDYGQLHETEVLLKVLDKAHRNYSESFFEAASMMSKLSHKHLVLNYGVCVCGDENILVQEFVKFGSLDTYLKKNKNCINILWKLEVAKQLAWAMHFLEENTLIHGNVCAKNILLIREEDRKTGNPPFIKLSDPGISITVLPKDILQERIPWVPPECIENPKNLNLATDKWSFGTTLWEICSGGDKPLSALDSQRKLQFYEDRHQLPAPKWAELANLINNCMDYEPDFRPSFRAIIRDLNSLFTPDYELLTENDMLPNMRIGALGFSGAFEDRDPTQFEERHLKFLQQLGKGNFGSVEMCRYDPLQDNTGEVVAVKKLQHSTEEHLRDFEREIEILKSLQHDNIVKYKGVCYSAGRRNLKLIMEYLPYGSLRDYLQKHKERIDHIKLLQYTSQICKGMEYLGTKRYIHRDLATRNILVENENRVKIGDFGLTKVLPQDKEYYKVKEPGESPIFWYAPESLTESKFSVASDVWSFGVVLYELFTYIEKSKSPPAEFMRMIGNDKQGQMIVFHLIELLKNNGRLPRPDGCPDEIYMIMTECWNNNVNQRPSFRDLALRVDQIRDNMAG
# Outline: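 GST-tagged recombinant JAK2 pre-incubated 1 h at ambient temperature with compound and GFP-STAT1 peptide in HEPES pH 7.5/MgCl2 buffer, then ATP added for a 1 h reaction with 1% DMSO. TR-FRET read after EDTA and Tb-anti-pSTAT1 (pTyr701) addition; IC50 from 4-parameter fit, converted to pKi by Cheng-Prusoff.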
# [1] = test system: IL-2 stimulated pSTAT5 in Tall-1 T cells; assay: Cellular JAK3 potency assay: inhibition of IL-2 stimulated pSTAT5 in Tall-1 T cells; assay type: cell-based, human; conditions: for IC50: Homo sapiens, read-out: Tall-1 (pIC50) (converted)
# Outline: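 Tall-1 human T cells (45,000/well) in phenol red-free DMEM with 10% FBS were preincubated with compound 1 h at 37 °C, then stimulated with IL-2 (final 300 ng/ml) for 30 min. Lysate pSTAT5 read by AlphaLisa; IC50 from inhibition curves, reported as pIC50 (mean±SD).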
# Tyk2 = biological target: T4, Tyk2 (Homo sapiens, UniProt P29597); assay: Biochemical Tyk2 kinase assay (LanthaScreen); conditions: for Ki: read-out: Tyk 2 (pKi) (converted)
# T4 construct: GST; purchased Life Technologies
# T4 sequence (P29597 whole entry): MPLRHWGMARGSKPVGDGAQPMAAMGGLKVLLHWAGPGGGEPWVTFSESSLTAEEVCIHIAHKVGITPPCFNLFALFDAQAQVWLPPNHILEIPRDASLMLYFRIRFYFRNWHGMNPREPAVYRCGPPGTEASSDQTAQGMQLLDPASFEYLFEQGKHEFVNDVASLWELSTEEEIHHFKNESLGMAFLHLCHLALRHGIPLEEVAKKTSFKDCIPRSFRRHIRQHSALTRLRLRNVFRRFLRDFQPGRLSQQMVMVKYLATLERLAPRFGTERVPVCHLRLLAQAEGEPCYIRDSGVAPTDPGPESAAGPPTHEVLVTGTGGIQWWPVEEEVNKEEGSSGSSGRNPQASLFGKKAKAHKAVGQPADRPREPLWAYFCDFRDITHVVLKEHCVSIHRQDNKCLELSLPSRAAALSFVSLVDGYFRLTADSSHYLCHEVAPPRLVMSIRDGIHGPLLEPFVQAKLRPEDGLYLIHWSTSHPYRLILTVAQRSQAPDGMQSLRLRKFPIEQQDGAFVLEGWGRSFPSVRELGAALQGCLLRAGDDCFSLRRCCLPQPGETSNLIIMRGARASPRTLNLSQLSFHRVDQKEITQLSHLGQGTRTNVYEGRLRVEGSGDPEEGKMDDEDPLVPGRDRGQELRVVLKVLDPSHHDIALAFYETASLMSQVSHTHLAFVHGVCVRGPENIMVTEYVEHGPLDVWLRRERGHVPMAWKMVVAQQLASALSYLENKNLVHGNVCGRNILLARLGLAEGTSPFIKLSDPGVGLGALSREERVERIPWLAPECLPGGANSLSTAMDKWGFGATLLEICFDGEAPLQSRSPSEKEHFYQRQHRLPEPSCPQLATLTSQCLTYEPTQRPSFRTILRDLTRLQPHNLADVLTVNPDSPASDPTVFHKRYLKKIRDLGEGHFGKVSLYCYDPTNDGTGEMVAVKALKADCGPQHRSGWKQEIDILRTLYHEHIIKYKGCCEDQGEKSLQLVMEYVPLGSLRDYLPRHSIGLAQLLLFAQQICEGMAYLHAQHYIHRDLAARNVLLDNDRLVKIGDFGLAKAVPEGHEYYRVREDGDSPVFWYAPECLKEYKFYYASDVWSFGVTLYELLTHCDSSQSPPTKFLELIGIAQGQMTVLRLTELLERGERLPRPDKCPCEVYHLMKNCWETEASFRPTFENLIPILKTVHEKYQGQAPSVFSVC
# Outline: as §1
# [2] = selectivity: difference of pKi JAK3 and pKi JAK1
# [3] = IL-2 stimulated pSTAT5 in Tall-1 T cells
# [4] = selectivity JAK3 over JAK1, difference of pKi
# [5] = TALL-1, IL-2 stimulated pSTAT5, Tall-1 T cells
# [6] = IL-2 stimulated pSTAT5, Tall-1 T cells
# T1 sequence (P23458 whole entry): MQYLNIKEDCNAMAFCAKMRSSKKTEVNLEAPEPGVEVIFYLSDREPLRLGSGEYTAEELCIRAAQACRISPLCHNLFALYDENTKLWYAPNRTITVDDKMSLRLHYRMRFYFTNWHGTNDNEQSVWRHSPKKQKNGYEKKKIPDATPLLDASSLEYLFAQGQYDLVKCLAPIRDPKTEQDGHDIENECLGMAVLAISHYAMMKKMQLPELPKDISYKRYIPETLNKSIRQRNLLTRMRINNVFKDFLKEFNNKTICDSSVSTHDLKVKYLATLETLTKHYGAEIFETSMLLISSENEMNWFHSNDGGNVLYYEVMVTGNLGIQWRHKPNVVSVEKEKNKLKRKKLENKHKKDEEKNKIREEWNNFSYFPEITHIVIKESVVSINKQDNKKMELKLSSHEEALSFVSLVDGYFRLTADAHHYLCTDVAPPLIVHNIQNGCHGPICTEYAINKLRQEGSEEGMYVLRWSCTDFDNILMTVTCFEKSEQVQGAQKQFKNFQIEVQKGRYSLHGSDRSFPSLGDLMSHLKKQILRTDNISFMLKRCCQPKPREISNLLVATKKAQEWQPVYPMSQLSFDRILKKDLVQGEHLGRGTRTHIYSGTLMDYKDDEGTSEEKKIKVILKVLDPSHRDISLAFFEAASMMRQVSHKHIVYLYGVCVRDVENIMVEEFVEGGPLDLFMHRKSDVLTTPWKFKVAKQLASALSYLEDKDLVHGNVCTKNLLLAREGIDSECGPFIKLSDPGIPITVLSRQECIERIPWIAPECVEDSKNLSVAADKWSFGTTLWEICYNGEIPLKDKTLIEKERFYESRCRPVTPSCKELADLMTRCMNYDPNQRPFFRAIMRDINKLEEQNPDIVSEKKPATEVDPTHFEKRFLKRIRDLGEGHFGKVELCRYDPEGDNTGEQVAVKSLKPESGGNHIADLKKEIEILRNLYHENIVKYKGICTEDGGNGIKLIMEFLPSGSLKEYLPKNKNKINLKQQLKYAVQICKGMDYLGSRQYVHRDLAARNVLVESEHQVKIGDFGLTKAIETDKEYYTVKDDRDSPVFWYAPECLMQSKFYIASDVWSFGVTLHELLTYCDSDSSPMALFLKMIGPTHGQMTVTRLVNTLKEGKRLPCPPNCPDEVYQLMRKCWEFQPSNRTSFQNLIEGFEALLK
SMILES,JAK 1 (pKi) (JAK1),JAK 3 (pKi) (JAK3),JAK3 (pKi)-JAK1 (pKi) (JAK3; [2]),JAK 2 (pKi) (JAK2),"Tall-1 (pIC50) [1, 3]",Tyk 2 (pKi) (Tyk2),Ki (JAK1),Ki (JAK3),JAK3 (pKi)-JAK1 (pKi) (JAK3; [4]),Ki (JAK2),"IC50 [1, 5]",Ki (Tyk2),"IC50 ([1]; TALL-1, IL-2 stimulated pSTAT5 in Tall-1 T cells)","Tall-1 (pIC50) [1, 6]"
C=CC(=O)N1CC(Nc2cc(-c3ccc(O)cc3)cc3[nH]ncc23)C1 [Compound 5-7],E (a pKi value of 7 or below (Ki of 100 nM or above)),A (a pKi value≥10 (Ki≤0.1 nM)),A (a value of 3 or above),D (a pKi value between 7 and 8 (Ki between 100 nM and 10 nM)),B (a pIC50 value between 6.7 (included) and 7.5 (IC50 between 200 nM and 32 nM)),E (a pKi value of 7 or below (Ki of 100 nM or above)),,,,,,,,
CN(C)C/C=C/C(=O)N1CC(F)(COc2cc(-c3ccc(O)cc3)cc3[nH]ncc23)C1 [Compound 3-5],D (a pKi value between 7 and 8 (Ki between 100 nM and 10 nM)),B (a pKi value between 9 and 10 (Ki between 1 nM and 0.1 nM)),B (a value of 2.3 to 3),D (a pKi value between 7 and 8 (Ki between 100 nM and 10 nM)),A (a pIC50 value≥7.5 (IC50≤32 nM)),E (a pKi value of 7 or below (Ki of 100 nM or above)),,,,,,,,
C=CC(=O)N1CC(CSc2cc(-c3ccc(O)cc3)cc3[nH]ncc23)C1 [Compound 12-34],,,,,,,> 100 nM,0.1 to 1 nM,B (a value of 2.3 to 3),> 100 nM,< 31.6 nM,> 100 nM,,
C=CC(=O)N1CC(C#N)(COc2cc(-c3ccc(O)c(F)c3)nc3[nH]ncc23)C1 [Compound 3-111],E (a pKi value of 7 or below (Ki of 100 nM or above)),B (a pKi value between 9 and 10 (Ki between 1 nM and 0.1 nM)),A (a value of 3 or above),E (a pKi value of 7 or below (Ki of 100 nM or above)),C (a pIC50 value between 6 and 6.7 (IC50 between 1 μM and 200 nM)),E (a pKi value of 7 or below (Ki of 100 nM or above)),,,,,,,,
CN(C)C/C=C/C(=O)N1CC(F)(COc2cc(-c3ccc(O)c(Cl)c3)cc3[nH]ncc23)C1 [Compound 3-42],,,B (a value of 2.3 to 3),,,,0.1 to 1 nM,0.1 to 1 nM,,10 to 100 nM,,> 100 nM,< 31.6 nM,
C=CC(=O)N1CC[C@H](Oc2cc(-c3ccc(O)cc3)cc3[nH]ncc23)C[C@H]1C [Compound 12-32],,,,,,,> 100 nM,< 0.1 nM,A (a value of 3 or above),10 to 100 nM,< 31.6 nM,> 100 nM,,
C=CC(=O)N1CCC(F)(C(=O)Nc2cc(-c3ccc(O)cc3)cc3[nH]ncc23)CC1 [Compound 12-58],,,,,,,> 100 nM,< 0.1 nM,A (a value of 3 or above),10 to 100 nM,31.6 to 200 nM,> 100 nM,,
C=CC(=O)N1CCC(Oc2nc(-c3ccc(O)c(Cl)c3)cc3[nH]ncc23)CC1 [Compound 6-21],D (a pKi value between 7 and 8 (Ki between 100 nM and 10 nM)),B (a pKi value between 9 and 10 (Ki between 1 nM and 0.1 nM)),,D (a pKi value between 7 and 8 (Ki between 100 nM and 10 nM)),,E (a pKi value of 7 or below (Ki of 100 nM or above)),,,B (a value of 2.3 to 3),,,,,B (a pIC50 value between 6.7 (included) and 7.5 (IC50 between 200 nM and 32 nM))
C=CC(=O)N1CC(OCc2cc(-c3ccc(O)c(F)c3)cc3[nH]ncc23)C1 [Compound 16-3],E (a pKi value of 7 or below (Ki of 100 nM or above)),B (a pKi value between 9 and 10 (Ki between 1 nM and 0.1 nM)),,E (a pKi value of 7 or below (Ki of 100 nM or above)),,E (a pKi value of 7 or below (Ki of 100 nM or above)),,,A (a value of 3 or above),,,,,A (a pIC50 value≥7.5 (IC50≤32 nM))
CN(C)C/C=C/C(=O)N1CCC(C)(Oc2cc(-c3ccc(O)c(Cl)c3)cc3[nH]ncc23)CC1 [Compound 6-4],,,,,,,> 100 nM,< 0.1 nM,A (a value of 3 or above),10 to 100 nM,31.6 to 200 nM,> 100 nM,,
C=CC(=O)N1CC(COc2cc(-c3ccc(O)cc3)cc3[nH]nc(SC)c23)C1 [Compound 18-10],,,,,,,> 100 nM,< 0.1 nM,A (a value of 3 or above),10 to 100 nM,31.6 to 200 nM,> 100 nM,,
CCC1(COc2nc(-c3ccc(O)c(F)c3)cc3[nH]ncc23)CN(C(=O)/C=C/CN(C)C)C1 [Compound 3-100],E (a pKi value of 7 or below (Ki of 100 nM or above)),B (a pKi value between 9 and 10 (Ki between 1 nM and 0.1 nM)),A (a value of 3 or above),E (a pKi value of 7 or below (Ki of 100 nM or above)),A (a pIC50 value≥7.5 (IC50≤32 nM)),E (a pKi value of 7 or below (Ki of 100 nM or above)),,,,,,,,
CN(C)C/C=C/C(=O)N1CC(Sc2cc(-c3ccc(O)cc3)cc3[nH]ncc23)C1 [Compound 12-51],D (a pKi value between 7 and 8 (Ki between 100 nM and 10 nM)),A (a pKi value≥10 (Ki≤0.1 nM)),,D (a pKi value between 7 and 8 (Ki between 100 nM and 10 nM)),,E (a pKi value of 7 or below (Ki of 100 nM or above)),,,A (a value of 3 or above),,,,,B (a pIC50 value between 6.7 (included) and 7.5 (IC50 between 200 nM and 32 nM))
C=CC(=O)N1CCC(Oc2nc(-c3ccc(O)c(F)c3)cc3[nH]ncc23)CC1 [Compound 6-16],,,,,,,> 100 nM,0.1 to 1 nM,A (a value of 3 or above),10 to 100 nM,31.6 to 200 nM,> 100 nM,,

# Source: patent US10392368B2, “Pyrazolo and triazolo bicyclic compounds as JAK kinase inhibitors” (THERAVANCE BIOPHARMA R&D IP, LLC, priority 2017, dated 2019)
